Test systems include A498; A549; ACHN; CAKI-1; CCRF-CEM; HT-29; IGROV-1; KM12; LOX IMVI; M14; MDA-MB-435; Malme-3M; NCI-H23; NCI/ADR-RES; OVCAR-5; SK-MEL-2; SN12C; SNB-19; SNB-75; U-251.
Experiment in all cases: NCI-60 cell line screen, 48 h

SMILES strings stand for the structures.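 Each compound was tested at five concentrations against cells in 96-well plates for 48 hours. At the GI50, growth is halved.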 Active and inactive are the calls of the source. Cut-off read from the data, not from the text of the source: active = GI50 up to about 1.1 µM and inactive = higher.

Turning to `NC1=NC2(COC(c3ccccc3)(c3ccccc3)c3ccccc3)OC(COC(c3ccccc3)(c3ccccc3)c3ccccc3)C(O)C2O1` (stereo not given), the GI50 was > 100 µM (inactive) in the assay with A498; 25.1 µM (inactive) in the assay with A549; 88.3 µM (inactive) in the assay with ACHN; > 100 µM (inactive) with CAKI-1; 21.3 µM (inactive) with CCRF-CEM; 65 µM (inactive) in the assay with HT-29. The GI50 was 21.8 µM (inactive) with IGROV-1; 21.6 µM (inactive) in the assay with KM12; > 100 µM (inactive) in the assay on LOX IMVI; > 100 µM (inactive) in the assay on M14; 65.8 µM (inactive) in the assay on MDA-MB-435; 18.4 µM (inactive) in the assay on Malme-3M. Also, the GI50 is 23.1 µM (inactive) with NCI-H23; 21.1 µM (inactive) in the assay on NCI/ADR-RES; 81.7 µM (inactive) in the assay on OVCAR-5; 5.77 µM (inactive) with SK-MEL-2; > 100 µM (inactive) in the assay on SN12C; 23 µM (inactive) with SNB-19. The GI50 in the assay with SNB-75 is < 0.01 µM (active); with U-251, > 100 µM (inactive).
As for `CSc1nc(=O)c2nc(-c3cccs3)c(-c3cccs3)nc2n1C`, the GI50 is 32.3 µM (inactive) with A498; 44.8 µM (inactive) in the assay on A549; 37.7 µM (inactive) with ACHN; 39.6 µM (inactive) in the assay with CAKI-1; > 100 µM (inactive) with CCRF-CEM; > 100 µM (inactive) in the assay on HT-29. Moreover, the GI50 was 43.5 µM (inactive) in the assay on IGROV-1; > 100 µM (inactive) with KM12; 57.5 µM (inactive) with LOX IMVI; > 100 µM (inactive) with M14; > 100 µM (inactive) in the assay with MDA-MB-435; 50.9 µM (inactive) in the assay on Malme-3M. Also, the GI50 with NCI-H23 is 55.8 µM (inactive); with NCI/ADR-RES, 50.2 µM (inactive); in the assay on OVCAR-5, 75.3 µM (inactive); in the assay on SK-MEL-2, 49.2 µM (inactive); with SN12C it was 43.6 µM (inactive); with SNB-19, 29.8 µM (inactive). Besides, the results for the GI50 in the assay on SNB-75 and with U-251 were 18.7 µM (inactive) and 28.2 µM (inactive), respectively.
As to `CC1CNC(c2ccc(CN3CCC(C4CCN(Cc5ccc(C6=NC(C)CN6)cc5)CC4)CC3)cc2)=N1` (stereo not given), the GI50 in the assay with A498 is 29.2 µM (inactive); with A549, 20.6 µM (inactive); with ACHN it was 26.5 µM (inactive); in the assay on CAKI-1, 38.8 µM (inactive); with CCRF-CEM, 13.9 µM (inactive); in the assay on HT-29, 18.5 µM (inactive). In addition, the GI50 in the assay on IGROV-1 was 37.2 µM (inactive); in the assay with KM12 it was 15.7 µM (inactive); in the assay with LOX IMVI, 22.7 µM (inactive); in the assay with M14 it was 20.2 µM (inactive); in the assay with MDA-MB-435 it was 20.8 µM (inactive); in the assay on Malme-3M, 23.9 µM (inactive). The GI50 is 28 µM (inactive) in the assay with NCI-H23; 34.4 µM (inactive) in the assay on NCI/ADR-RES; 24.9 µM (inactive) in the assay on OVCAR-5; 19.1 µM (inactive) in the assay on SK-MEL-2; 20.1 µM (inactive) with SN12C; 26.1 µM (inactive) in the assay with SNB-19. Also, the GI50 in the assay on SNB-75 is 16.6 µM (inactive); with U-251 it was 16 µM (inactive).
For the compound `CC(C)C(=O)CC(Sc1ccc(N)cc1)c1ccccc1` (stereo not given), the GI50 is 36.2 µM (inactive) in the assay on A498; 28.1 µM (inactive) with A549; 20 µM (inactive) with ACHN; 34.3 µM (inactive) with CAKI-1; 17.1 µM (inactive) in the assay on CCRF-CEM; 27.5 µM (inactive) with HT-29. Besides, the GI50 is 44.1 µM (inactive) in the assay on IGROV-1; 22.5 µM (inactive) in the assay with KM12; 16.6 µM (inactive) in the assay with LOX IMVI; 30.4 µM (inactive) in the assay on M14; 13.6 µM (inactive) in the assay with MDA-MB-435; 35.1 µM (inactive) in the assay with Malme-3M. Further, the GI50 was 21.9 µM (inactive) in the assay with NCI-H23; 33.7 µM (inactive) in the assay on NCI/ADR-RES; 29.4 µM (inactive) with OVCAR-5; 23.3 µM (inactive) in the assay on SK-MEL-2; 28.1 µM (inactive) with SN12C; 48.5 µM (inactive) with SNB-19. The GI50 in the assay with SNB-75 was 32.6 µM (inactive); in the assay with U-251 it was 16.6 µM (inactive).
Take `O=C1CCCC1CN1CCCC1` (stereo not given): the GI50 in the assay with A498 was 22.5 µM (inactive); in the assay with A549, > 75.5 µM (inactive); with ACHN, 6.08 µM (inactive); in the assay on CAKI-1, 0.348 µM (active); in the assay with CCRF-CEM it was 0.207 µM (active); with HT-29, 23.2 µM (inactive). The GI50 with IGROV-1 was 10.6 µM (inactive); in the assay with KM12, 16.1 µM (inactive); in the assay with LOX IMVI, 8.75 µM (inactive); in the assay with M14, 1.67 µM (inactive); in the assay with MDA-MB-435, 13.1 µM (inactive); with Malme-3M, 2.04 µM (inactive). Moreover, the GI50 in the assay on NCI-H23 is 15.3 µM (inactive); with NCI/ADR-RES, 15.7 µM (inactive); in the assay with OVCAR-5, 18.3 µM (inactive); in the assay with SK-MEL-2, 7.14 µM (inactive); with SN12C, 17.7 µM (inactive); with SNB-19, > 100 µM (inactive). Moreover, the figures for the GI50 in the assay on SNB-75 and in the assay with U-251 were 17.1 µM (inactive) and 23 µM (inactive), respectively.
`CC(C)Nc1[nH]c(C(=O)c2ccccc2)c(N)c1C(=S)Nc1ccccc1`: the GI50 in the assay with A498 was 77.6 µM (inactive); in the assay with A549, 90.6 µM (inactive); with ACHN, 63.1 µM (inactive); in the assay on CAKI-1, > 100 µM (inactive); in the assay with CCRF-CEM, > 100 µM (inactive); in the assay on HT-29, 27.9 µM (inactive). For the same compound, the GI50 was > 100 µM (inactive) in the assay with IGROV-1; 31.7 µM (inactive) in the assay on KM12; 23.2 µM (inactive) with LOX IMVI; 23.2 µM (inactive) with M14; 30.8 µM (inactive) in the assay with MDA-MB-435; 19.3 µM (inactive) in the assay on Malme-3M. Also, the GI50 is > 100 µM (inactive) in the assay with NCI-H23; > 100 µM (inactive) in the assay on NCI/ADR-RES; > 100 µM (inactive) in the assay with OVCAR-5; 23.8 µM (inactive) with SK-MEL-2; > 100 µM (inactive) in the assay with SN12C; > 100 µM (inactive) in the assay with SNB-19. In addition, the GI50 in the assay with SNB-75 is 69.3 µM (inactive); in the assay on U-251, 43.2 µM (inactive).
Turning to `COc1ccc(CCNC(=S)NC=C2C(=O)c3ccccc3C2=O)cc1OC`, the GI50 in the assay on A498, in the assay with A549, in the assay on ACHN, with CAKI-1, in the assay on CCRF-CEM and with HT-29 was > 100 µM (inactive) in each case. In addition, the GI50 in the assay on IGROV-1, with KM12, in the assay on LOX IMVI, in the assay on M14, in the assay with MDA-MB-435 and in the assay on Malme-3M was > 100 µM (inactive) in each case. Besides, the GI50 in the assay on NCI-H23, with NCI/ADR-RES, in the assay on OVCAR-5, with SK-MEL-2, in the assay on SN12C and in the assay on SNB-19 was > 100 µM (inactive) in each case. The GI50 was 19.8 µM (inactive) with SNB-75 and > 100 µM (inactive) with U-251.
In the case of `CC(C)(CN1CCCCC1)C(=O)/C=C/c1ccc(/C=C/C(=O)C(C)(C)CN2CCCCC2)cc1`, the GI50 in the assay with A498 was 1.6 µM (inactive); in the assay on A549, 0.933 µM (active); in the assay with ACHN, 0.264 µM (active); with CAKI-1 it was 0.303 µM (active); in the assay on CCRF-CEM, 0.0466 µM (active); with HT-29, 0.198 µM (active). The GI50 with IGROV-1 is 0.505 µM (active); in the assay with KM12, 0.434 µM (active); in the assay with LOX IMVI, 0.268 µM (active); in the assay on M14, 0.908 µM (active); with MDA-MB-435 it was 0.421 µM (active); with Malme-3M, 0.871 µM (active). The GI50 was 0.711 µM (active) in the assay with NCI-H23; 0.393 µM (active) with NCI/ADR-RES; 0.726 µM (active) with OVCAR-5; 1.25 µM (inactive) in the assay with SK-MEL-2; 0.208 µM (active) in the assay on SN12C; 1.35 µM (inactive) in the assay with SNB-19. Further, the GI50 in the assay on SNB-75 was 0.673 µM (active); in the assay with U-251, 0.273 µM (active).
On to `O=C(O)[C@H]1NC[C@H]2C(Br)=NO[C@@H]12`, for which the GI50 in the assay on A498, with A549, in the assay on ACHN, in the assay on CAKI-1, in the assay on CCRF-CEM and in the assay with HT-29 was > 100 µM (inactive) throughout. Further, the GI50 in the assay on IGROV-1, in the assay with KM12, with LOX IMVI, with M14, with MDA-MB-435 and in the assay with Malme-3M was > 100 µM (inactive) each time. The GI50 in the assay with NCI-H23, in the assay on NCI/ADR-RES, in the assay with OVCAR-5, in the assay on SK-MEL-2, in the assay on SN12C and in the assay with SNB-19 was > 100 µM (inactive) throughout. The GI50 in the assay on SNB-75 and in the assay on U-251 was > 100 µM (inactive) in each case.
In the case of `COc1cc(/C=C/C(=O)O)ccc1OS(=O)(=O)O`, the GI50 with A498, in the assay with A549, in the assay with ACHN, in the assay on CAKI-1, in the assay on CCRF-CEM and in the assay with HT-29 was > 100 µM (inactive) in each case. Further, the GI50 in the assay on IGROV-1, in the assay with KM12, in the assay with LOX IMVI, in the assay on M14, in the assay with MDA-MB-435 and in the assay on Malme-3M was > 100 µM (inactive) each time. The GI50 with NCI-H23, in the assay with NCI/ADR-RES, in the assay on OVCAR-5, in the assay with SK-MEL-2, in the assay with SN12C and in the assay with SNB-19 was > 100 µM (inactive) in each case. Further, the GI50 in the assay on SNB-75 and in the assay with U-251 was > 100 µM (inactive) throughout.

Values taken from ChEMBL document CHEMBL1201862, “PubChem BioAssay data set” (2004).
